Assay results as given in article PMC7336998, “Discovery of secondary sulphonamides as IDO1 inhibitors with potent antitumour effects in vivo” (Journal of Enzyme Inhibition and Medicinal Chemistry, 2020).
Entries after “also recorded” stand apart in the source; their conditions may differ.

Experiments:
CT26 colon carcinoma = CT26 colon carcinoma xenograft in immunocompetent BALB/c mice (tumour growth, H&E, IHC, TUNEL, spleen FACS); type: in vivo
Description: BALB/c mice (6–8 weeks old, 18–22 g) were supplied by Model Animal Research Centre of Nanjing University (Nanjing, China). Mice were maintained under standard specific-pathogen-free (SPF) conditions (21 ± 2 °C and 12-h light: dark cycle). Animal welfare and experimental procedures were carried out strictly in accordance with the Guide for the Care and Use of Laboratory Animals (The Ministry of Science and Technology of China, 2006) and the related ethical regulations of our university. All efforts were made to minimise animals’ suffering and to reduce the number of animals used. Mouse colon cancer cells (CT26) and melanoma cells (B16F1) were cultured and collected by centrifugation (1000 rpm, 5 min) and washed twice with ice-cold PBS. Then cells were diluted to 1 × 10^7/ml and 1 × 10^6 CT26/B16F1 cells (in 0.1 ml PBS) were injected subcutaneously into the right flanks of mice. All mice formed tumours three days after injection. Then mice were randomly distributed into five groups (n = 10/8) according to tumour volumes. 5d ([…], 12.5 mg/kg) were administered (i.g) to each group respectively every day. 5-FU (25 mg/kg) and Cis-platinum (1 mg/kg) were administered (i.p) every three days. Tumour length and tumour width were measured with a Vernier calliper every three days. Tumour volumes were measured and calculated using the equation volume = a × b^2/2, where “a” is the maximal […] and “b” is maximal orthogonal width. After the administration were completed, mice were weighed, euthanized, and tumours were removed and the weight were taken.
For immunohistochemistry staining, the sections were deparaffinized, rehydrated, and washed in 1% PBS-Tween 20, and then treated with 2% hydrogen peroxide, blocked with 3% goat serum (Life Technology, 16210–064) and incubated for 2 h at room temperature with specific primary antibodies. Then the slides were incubated with streptavidin-HRP (Shanghai Gene Company, GK500705) for 40 min, then stained with DAB (Shanghai Gene Company, GK500705) substrate and counter-stained with haematoxylin. Images were acquired by microscopy (Olympus IX51).
Given that it was the most prominent inhibitor in vitro, we chose compound 5d for further pharmacodynamic evaluation in vivo. Bowel cancer is the third leading cause of cancer in the world, thus we first evaluated the efficacy of compound 5d on the growth of murine CT26 colon carcinoma xenograft model in immunocompetent BALB/c mice. Fluorouracil (5-FU) is one of the most commonly used drugs to different cancers including bowel cancer, and was used as the positive control. The CT26 tumour-bearing mice were treated with 5d (3.125, 6.25, 12.5 mg/kg, i.g, every day) or 5-FU (25 mg/kg, i.p, […]). Tumour volumes were measured every two days for 14 days.
Figure 7. Compound 5d suppressed colon cancer growth in immunocompetent mice. 1 × 10^6 CT26 cells were transplanted subcutaneously into the armpit of the BALB/c mice. Three days after transplantation, mice were randomly allocated to vehicle control or treatment groups (n = 10). Drugs were administered on days 1–14. Tumour volume (A) and mice body weight (B) were recorded. After sacrifice, solid tumours were separated and weighed (C, D). Data represent mean ± SEM, n = 10, *p < 0.05, **p < 0.01 vs vehicle.
In order to further observe morphological changes in tumour tissues after administration of compound 5d, the tumour tissue sections obtained from the BALB/c mice bearing CT26 colorectal tumours were stained with haematoxylin-eosin (H&E) to highlight different tissue structures, such as the nucleus and cytoplasm.
Then, to understand the mechanism of tumour cell death, we detected the level of proliferating cell nuclear antigen (PCNA) protein and tumour cell apoptosis by immunohistochemistry (IHC) and terminal deoxynucleotidyl transferase dUTP nick end labelling (TUNEL) experiments, respectively. […]

IDO1 = target: T1, IDO1 (Homo sapiens, UniProt P14902); experiment: HeLa cell-based IDO1/kynurenine assay
T1 construct: a human cervical cancer cell line HeLa that endogenously expresses IDO1 upon IFN-γ treatment; endogenous in cells; host or cells: HeLa cells treated with human IFN-γ
T1 sequence (P14902 whole entry): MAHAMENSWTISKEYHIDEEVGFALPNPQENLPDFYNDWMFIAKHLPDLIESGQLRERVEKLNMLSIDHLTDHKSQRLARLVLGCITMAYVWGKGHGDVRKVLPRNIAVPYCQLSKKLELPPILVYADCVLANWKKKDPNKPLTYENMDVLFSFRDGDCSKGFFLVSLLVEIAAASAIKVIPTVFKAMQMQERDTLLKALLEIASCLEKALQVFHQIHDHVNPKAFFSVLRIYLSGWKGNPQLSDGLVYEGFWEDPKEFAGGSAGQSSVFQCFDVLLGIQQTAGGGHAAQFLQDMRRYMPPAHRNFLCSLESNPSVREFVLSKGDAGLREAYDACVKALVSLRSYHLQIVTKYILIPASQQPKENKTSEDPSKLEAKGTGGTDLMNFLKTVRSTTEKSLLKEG

[1] = target: T2, IDO1 protein in HeLa cells (Homo sapiens, UniProt P14902); experiment: Cellular thermal shift assay (CETSA); type: binding; details: IFN-γ 100 ng/mL 24 h, compound 2 h, 43-70 °C, Western blot
T2 construct: a human cervical cancer cell line HeLa that endogenously expresses IDO1 upon IFN-γ treatment; endogenous in cells; host or cells: HeLa cells treated with human IFN-γ
T2 sequence (P14902 whole entry): as above
Description: HeLa cells were seeded in 6-well culture plates at a density of 2 × 10^5 per well. On the next day, human IFN-γ (100 ng/mL) were added and incubated for 24 h, and then the cells were treated with 5d for 2 h. At the end of incubation, cells collected and subjected to CETSA assay. Briefly, incubated cells were equally divided into 10 parts, each part was heated for 3 min under different temperature (43, 46, 49, 52, 55, 58, 61, 64, 67, and 70 °C), and then the heated cells were kept at −80 °C for 12 h, then at room temperature for 5 min, and the process repeated one more time. After that, cell lysates were extracted by centrifugation at 20,000 × g, 20 min. Levels of IDO1 protein were assessed by Western blot analysis.
The cellular thermal shift assay (CETSA) is usually used to identify compounds and their potential targets. CESTA can detect the target engagement of drugs in a cellular context based on the biophysical principle of ligand-induced thermal stabilisation of target proteins. To this end, we further employed the CETSA assay to detect whether compound 5d could directly bind to the target protein IDO1 in HeLa cells.
Figure 6. Compound 5d could bind to IDO1 protein in HeLa cells. HeLa cells were treated with human IFN-γ (100 ng/mL) for 24 h, and then treated with 5d for 2 h. […] The levels of IDO1 protein were assessed by Western blot analysis.

[2] = BALB/c mice, 12.5 mg/kg i.g, every day, 14 days
[3] = CT26 tumour tissue, BALB/c mice, 3.125-12.5 mg/kg i.g

C=CC(=O)Nc1ccc(S(=O)(=O)NCc2cccc(Cl)c2)cc1 [5d, N-(4-(N-(3-Chlorobenzyl)sulfamoyl)phenyl)acrylamide]
body weight of the mice (CT26 colon carcinoma; 14-day treatment, vs vehicle group): no significant change in body weight | reduction of average tumour weight (CT26 colon carcinoma; [2]): 37.5% | reduction of tumour volume (CT26 colon carcinoma; [2]): 35.9% | tumour growth (CT26 colon carcinoma; BALB/c mice, 3.125, 6.25, 12.5 mg/kg, i.g, every day, 14 days, vs vehicle): significantly suppressed the growth of tumour in a dose-dependent manner | number of tumour cells (H&E staining) (CT26 colon carcinoma; [3]): decreased the number of tumour cells | tumour cell apoptosis (TUNEL) (CT26 colon carcinoma; [3]): significantly induced the tumour cell apoptosis in a dose-dependent manner | expression of IFN-γ (IHC) (CT26 colon carcinoma; CT26 tumour tissue, BALB/c mice, 3.125-12.5 mg/kg i.g, vs vehicle): increased the expression of IFN-γ in a dose-dependent manner | granzyme B levels (IHC) (CT26 colon carcinoma; CT26 tumour tissue, BALB/c mice, all doses): elevated granzyme B levels | FoxP3+ Treg cells in spleen (FACS) (CT26 colon carcinoma; CT26 tumour-bearing mice, 3.125 mg/kg): 4.79% | FoxP3+ Treg cells in spleen (FACS) (CT26 colon carcinoma; CT26 tumour-bearing mice, 6.25 mg/kg): 4.13% | FoxP3+ Treg cells in spleen (FACS) (CT26 colon carcinoma; CT26 tumour-bearing mice, 12.5 mg/kg): 2.62% | number of FoxP3+ Treg cells in spleen (in words) (CT26 colon carcinoma; CT26 tumour-bearing mice, 3.125-12.5 mg/kg): decreased the number of FoxP3^+ Treg cells in a dose-dependent manner | reduction of FoxP3+ Treg cells compared with the vehicle group (CT26 colon carcinoma; spleen, high dose group): 2.4 fold | IC50 (IDO1; HeLa cells, IFN-γ induced IDO1, kynurenine readout): 6.26 µM | inhibition at 30 µM (IDO1; percentage inhibition at 30 μM, IFN-γ-treated HeLa cells, kynurenine in media): 91.1% | thermal stability of IDO1 protein [1]: improve the thermal stability of IDO1 protein; also recorded: still maintained the protein stability at 55 °C
